Converted amounts (≈) assume the structure as drawn. Where two headings read alike, the source gives them in different places.
Key:
Assay in all cases: In vitro antibacterial activity, broth microdilution MIC90
Type in all cases: cell-based
Moraxella catarrhalis = system: Moraxella catarrhalis
Experimental: (§1) MIC90 was measured by broth microdilution method based on CLSI standards [reference: Clinical and Laboratory Standards Institute Document. (2000) Methods for Dilution Antimicrobial Susceptibility Test for Bacteria that Grow Aerobically-Fifth Edition: M7-A5. CLSI, Villanova, Pa.].
(§2) Activities of 12 strains including Staphylococcus aureus, Methicillin Resistant Staphylococcus aureus, Staphylococcus epidermidis, Methicillin Resistant Staphylococcus epidermidis, Enterococcus faecalis, Vancomycin Resistant Enterococcus faecalis, Linezolid and Vancomycin Resistant Enterococcus faecalis, Enterococcus faecium, Vancomycin Resistant Enterococcus faecium, Linezolid and Vancomycin Resistant Enterococcus faecium, and Moraxella catarrhalis, were measured, and results are shown in Table 1 below.
(§3) The final concentration of test material in the antibacterial test was from 0.063 μg/mL (minimum) to 128 μg/mL (maximum), and the final concentration of DMSO used as an excipient was 2.5% (V/V). Linezolid represented by Formula B below (manufactured by Pfizer) was used as a control and bacterial activity thereof was compared with those of the test materials.

[1] = system: Staphylococcus epidermidis
Experimental: as §1, §2, §3

[2] = system: Linezolid and Vancomycin Resistant Enterococcus faecalis
Experimental: as §1, §2, §3

[3] = system: Vancomycin Resistant Enterococcus faecium
Experimental: as §1, §2, §3

Enterococcus faecalis = system: Enterococcus faecalis
Experimental: as §1, §2, §3

[4] = system: Vancomycin Resistant Enterococcus faecalis
Experimental: as §1, §2, §3

[5] = system: Methicillin Resistant Staphylococcus epidermidis
Experimental: as §1, §2, §3

Staphylococcus aureus = system: Staphylococcus aureus
Experimental: as §1, §2, §3

[6] = system: Linezolid and Vancomycin Resistant Enterococcus faecium (strain 11)
Experimental: as §1, §2, §3

[7] = system: Methicillin Resistant Staphylococcus aureus
Experimental: as §1, §2, §3

[8] = system: Linezolid and Vancomycin Resistant Enterococcus faecium (strain 10)
Experimental: as §1, §2, §3

Enterococcus faecium = system: Enterococcus faecium
Experimental: as §1, §2, §3

[9] = Moraxella catarrhalis, strain 12, M. catarrhalis, read-out: MIC90
[10] = Staphylococcus epidermidis, strain 3, S. epidermidis, read-out: MIC90
[11] = Enterococcus faecalis, strain 7, E. faecalis VanA LR, read-out: MIC90
[12] = Enterococcus faecium, strain 9, E. faecium VanA, read-out: MIC90
[13] = Enterococcus faecalis, strain 5, E. faecalis, read-out: MIC90
[14] = Enterococcus faecalis, strain 6, E. faecalis VanA, read-out: MIC90
[15] = Staphylococcus epidermidis, strain 4, S. epidermidis MR, read-out: MIC90
[16] = Staphylococcus aureus, strain 1, S. aureus, read-out: MIC90
[17] = Enterococcus faecium, strain 11, E. faecium VanA LR, read-out: MIC90
[18] = Staphylococcus aureus, strain 2, S. aureus MR, read-out: MIC90
[19] = Enterococcus faecium, strain 10, E. faecium VanA LR, read-out: MIC90
[20] = Enterococcus faecium, strain 8, E. faecium, read-out: MIC90

MIC90 (Moraxella catarrhalis; [9])	MIC90 [1, 10]	MIC90 [2, 11]	MIC90 [3, 12]	MIC90 (Enterococcus faecalis; [13])	MIC90 [4, 14]	MIC90 [5, 15]	MIC90 (Staphylococcus aureus; [16])	SMILES	MIC90 (Moraxella catarrhalis; Moraxella catarrhalis)	MIC90 ([1]; Staphylococcus epidermidis)	MIC90 ([2]; Enterococcus faecalis)	MIC90 ([3]; Enterococcus faecium)	MIC90 (Enterococcus faecalis; Enterococcus faecalis)	MIC90 ([4]; Enterococcus faecalis)	MIC90 ([5]; Staphylococcus epidermidis)	MIC90 (Staphylococcus aureus; Staphylococcus aureus)	MIC90 ([6]; Enterococcus faecium)	MIC90 ([7]; Staphylococcus aureus)	MIC90 ([8]; Enterococcus faecium)	MIC90 (Enterococcus faecium; Enterococcus faecium)	also measured
2 µg/mL (≈ 4.54 µM)	1 µg/mL (≈ 2.27 µM)	4 µg/mL (≈ 9.08 µM)	1 µg/mL (≈ 2.27 µM)	1 µg/mL (≈ 2.27 µM)	2 µg/mL (≈ 4.54 µM)	2 µg/mL (≈ 4.54 µM)	1 µg/mL (≈ 2.27 µM)	CCN1C=NN(c2ccc(-c3ccc(N4C[C@H](CNC(C)=O)OC4=O)cc3F)cn2)CC1 [Compound 56]													MIC90 [6, 17]: 4 µg/mL (≈ 9.08 µM); MIC90 [7, 18]: 4 µg/mL (≈ 9.08 µM); MIC90 [8, 19]: 4 µg/mL (≈ 9.08 µM); MIC90 (Enterococcus faecium; [20]): 1 µg/mL (≈ 2.27 µM)
2 µg/mL (≈ 4.54 µM)	0.25 µg/mL (≈ 0.568 µM)	2 µg/mL (≈ 4.54 µM)	0.5 µg/mL (≈ 1.14 µM)	0.5 µg/mL (≈ 1.14 µM)	0.5 µg/mL (≈ 1.14 µM)	1 µg/mL (≈ 2.27 µM)	0.5 µg/mL (≈ 1.14 µM)	CC(=O)NC[C@H]1CN(c2ccc(-c3ccc(N4C=NN(C=O)CC4)nc3)c(F)c2)C(=O)O1 [Compound 1]													MIC90 [6, 17]: 2 µg/mL (≈ 4.54 µM); MIC90 [7, 18]: 1 µg/mL (≈ 2.27 µM); MIC90 [8, 19]: 2 µg/mL (≈ 4.54 µM); MIC90 (Enterococcus faecium; [20]): 0.5 µg/mL (≈ 1.14 µM)
2 µg/mL (≈ 4.84 µM)	0.25 µg/mL (≈ 0.605 µM)	1 µg/mL (≈ 2.42 µM)	0.25 µg/mL (≈ 0.605 µM)	0.25 µg/mL (≈ 0.605 µM)	0.25 µg/mL (≈ 0.605 µM)	0.5 µg/mL (≈ 1.21 µM)	0.25 µg/mL (≈ 0.605 µM)	CC(=O)NC[C@H]1CN(c2ccc(-c3ccc(C4=NOCCN4)nc3)c(F)c2)C(=O)O1 [Compound 64]													MIC90 [6, 17]: 2 µg/mL (≈ 4.84 µM); MIC90 [7, 18]: 0.5 µg/mL (≈ 1.21 µM); MIC90 [8, 19]: 1 µg/mL (≈ 2.42 µM); MIC90 (Enterococcus faecium; [20]): 0.25 µg/mL (≈ 0.605 µM)
								Cl.O=C1O[C@@H](CNc2ccon2)CN1c1ccc(-c2ccc(N3C=NNCC3)nc2)c(F)c1 [Compound 39]													MIC90 (Moraxella catarrhalis; strain 12, M. catarrhalis): 2 µg/mL; MIC90 ([1]; strain 3, S. epidermidis): 1 µg/mL; MIC90 ([2]; strain 7, E. faecalis VanA LR): 4 µg/mL; MIC90 ([3]; strain 9, E. faecium VanA): 1 µg/mL; MIC90 (Enterococcus faecalis; strain 5, E. faecalis): 0.5 µg/mL; MIC90 ([4]; strain 6, E. faecalis VanA): 1 µg/mL; MIC90 ([5]; strain 4, S. epidermidis MR): 2 µg/mL; MIC90 (Staphylococcus aureus; strain 1, S. aureus): 0.25 µg/mL; MIC90 ([6]; strain 11, E. faecium VanA LR): 4 µg/mL; MIC90 ([7]; strain 2, S. aureus MR): 0.5 µg/mL; MIC90 ([8]; strain 10, E. faecium VanA LR): 4 µg/mL; MIC90 (Enterococcus faecium; strain 8, E. faecium): 0.25 µg/mL
								CNC(=O)N1CCN(c2ccc(-c3ccc(N4C[C@H](CNC(=O)OC)OC4=O)cc3F)cn2)C=N1 [Compound 27]	4 µg/mL (≈ 8.24 µM)	1 µg/mL (≈ 2.06 µM)	4 µg/mL (≈ 8.24 µM)	0.5 µg/mL (≈ 1.03 µM)	0.5 µg/mL (≈ 1.03 µM)	0.5 µg/mL (≈ 1.03 µM)	2 µg/mL (≈ 4.12 µM)	0.5 µg/mL (≈ 1.03 µM)	2 µg/mL (≈ 4.12 µM)	2 µg/mL (≈ 4.12 µM)	2 µg/mL (≈ 4.12 µM)	0.25 µg/mL (≈ 0.515 µM)	
								Cl.O=C1O[C@@H](COc2ccon2)CN1c1ccc(-c2ccc(N3C=NNCC3)nc2)c(F)c1 [Compound 44]													MIC90 (Moraxella catarrhalis; strain 12, M. catarrhalis): >128 µg/mL; MIC90 ([1]; strain 3, S. epidermidis): 1 µg/mL; MIC90 ([2]; strain 7, E. faecalis VanA LR): 16 µg/mL; MIC90 ([3]; strain 9, E. faecium VanA): 2 µg/mL; MIC90 (Enterococcus faecalis; strain 5, E. faecalis): 4 µg/mL; MIC90 ([4]; strain 6, E. faecalis VanA): 4 µg/mL; MIC90 ([5]; strain 4, S. epidermidis MR): 4 µg/mL; MIC90 (Staphylococcus aureus; strain 1, S. aureus): 0.5 µg/mL; MIC90 ([6]; strain 11, E. faecium VanA LR): 16 µg/mL; MIC90 ([7]; strain 2, S. aureus MR): 1 µg/mL; MIC90 ([8]; strain 10, E. faecium VanA LR): 16 µg/mL; MIC90 (Enterococcus faecium; strain 8, E. faecium): 1 µg/mL
								CCN1CCN(c2ccc(-c3ccc(N4C[C@H](CNC(C)=O)OC4=O)cc3F)cn2)C=N1 [Compound 4]	2 µg/mL (≈ 4.54 µM)	0.5 µg/mL (≈ 1.14 µM)	2 µg/mL (≈ 4.54 µM)	0.5 µg/mL (≈ 1.14 µM)	0.5 µg/mL (≈ 1.14 µM)	0.5 µg/mL (≈ 1.14 µM)	1 µg/mL (≈ 2.27 µM)	0.5 µg/mL (≈ 1.14 µM)	2 µg/mL (≈ 4.54 µM)	1 µg/mL (≈ 2.27 µM)	2 µg/mL (≈ 4.54 µM)	0.5 µg/mL (≈ 1.14 µM)	
								O=C(C(O)CO)N1CCN(c2ccc(-c3ccc(N4C[C@H](Cn5ccnn5)OC4=O)cc3F)cn2)C=N1 (stereo partly shown) [Compound 37]	8 µg/mL (≈ 15.7 µM)	1 µg/mL (≈ 1.96 µM)	8 µg/mL (≈ 15.7 µM)	1 µg/mL (≈ 1.96 µM)	1 µg/mL (≈ 1.96 µM)	1 µg/mL (≈ 1.96 µM)	2 µg/mL (≈ 3.92 µM)	0.5 µg/mL (≈ 0.979 µM)	8 µg/mL (≈ 15.7 µM)	1 µg/mL (≈ 1.96 µM)	8 µg/mL (≈ 15.7 µM)	1 µg/mL (≈ 1.96 µM)	
								CC(=O)NC[C@H]1CN(c2ccc(-c3ccc(N4C=NN(C)CC4)nc3)c(F)c2)C(=O)O1 [Compound 3]	0.25 µg/mL (≈ 0.586 µM)	0.125 µg/mL (≈ 0.293 µM)	0.5 µg/mL (≈ 1.17 µM)	0.125 µg/mL (≈ 0.293 µM)	0.25 µg/mL (≈ 0.586 µM)	0.125 µg/mL (≈ 0.293 µM)	0.5 µg/mL (≈ 1.17 µM)	0.063 µg/mL (≈ 0.148 µM)	0.5 µg/mL (≈ 1.17 µM)	0.5 µg/mL (≈ 1.17 µM)	0.5 µg/mL (≈ 1.17 µM)	0.063 µg/mL (≈ 0.148 µM)	antibacterial activity against linezolid-resistant bacteria (in words) ([2]; Enterococcus faecalis and Enterococcus faecium which are resistant to linezolid): very high antibacterial activity

— patent US8846669B2, “Oxazolidinone derivative and medical composition containing same” (Legochem Biosciences, Inc., priority 2011, dated 2014)
